Assay results: patent US12171229B2, “Heteroaryl-triazole and heteroaryl-tetrazole compounds as pesticides” (BAYER AKTIENGESELLSCHAFT, priority 2018, dated 2024)

Key:
Type in all cases: in vivo
Tetranychus urticae = Tetranychus urticae spray test (OP-resistant); conditions: foliar, 144 h, after 6 days, French bean leaf disks
Protocol: Tetranychus urticae—Spray Test (OP-Resistant)
(§1) To produce a suitable preparation of active compound, 1 part by weight of active compound is mixed with the stated amount of solvents and is diluted with water, containing an emulsifier concentration of 1000 ppm, to the desired concentration. Further test concentrations are prepared by dilution with emulsifier containing water.
French bean (Phaseolus vulgaris) leaf disks infected with all instars of the two spotted spidermite (Tetranychus urticae), are sprayed with a preparation of the active ingredient of the desired concentration.
After 6 days mortality in % is determined. 100% means all spider mites have been killed and 0% means none of the spider mites have been killed.

Phaedon cochleariae = Phaedon cochleariae spray test; conditions: foliar, 168 h, after 7 days, larvae on Chinese cabbage leaf disks
Protocol: Phaedon Cochleariae—Spray Test
as §1
Chinese cabbage (Brassica pekinensis) leaf disks are sprayed with a preparation of the active ingredient of the desired concentration. Once dry, the leaf disks are infested with mustard beetle larvae (Phaedon cochleariae).
After 7 days mortality in % is determined. 100% means all beetle larvae have been killed and 0% means none of the beetle larvae have been killed.

Boophilus microplus = Boophilus microplus injection test; conditions: Rhipicephalus microplus, 168 h; 20 μg/animal injected into the abdomen; adult engorged female ticks; egg deposition after 7 days; read-out: efficacy (infertile eggs)
In short: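 Five engorged adult female ticks received a 1 μl abdominal injection of compound in DMSO. They were then held in a climate chamber, with egg deposition checked after 7 days. Unclear eggs were kept until hatching at about 42 days, and efficacy was scored as the percentage of infertile eggs.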

Myzus persicae = Myzus persicae oral test; conditions: 120 h, 20 ppm, after 5 days
In short: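 Aphid mortality (%) was recorded 5 days after a mixed Myzus persicae population began sucking, through parafilm, on compound solutions (acetone stock diluted with water) combined with sugar-supplemented IPL41 medium.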

Spodoptera frugiperda = Spodoptera frugiperda spray test; conditions: 168 h, after 7 days, larvae on maize leaf sections
In short: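 Compound mixed with solvent, diluted with 1000 ppm emulsifier water to test concentrations; sprayed on maize leaf pieces; dried; larvae added; mortality (%) scored at 7 d.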

Diabrotica balteata = Diabrotica balteata spray test; conditions: Diabrotica balteata, in Triticum aestivum, 168 h, after 7 days, larvae on wheat seeds, read-out: efficacy (seedlings grown up); for pest or weed control at 80 µg/disc, 250 g/ha: 80 μg/well (=250 g/ha); for pest or weed control at 160 µg/disc, 500 g/ha: 160 μg/well (=500 g/ha)
In short: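 Germinated wheat seeds (5 per well, 1 day on agar) sprayed with compound diluted in water containing 1000 ppm emulsifier, then infested with 10–20 D. balteata larvae. Efficacy scored after 7 days: 100% = seedlings like untreated uninfested control, 0% = no seedlings grown.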

Ctenocephalides felis [1] = assay: Ctenocephalides felis in-vitro contact test, adult cat flea; conditions: 5 μg/cm^2 (=500 g/ha), after 48 hours, adult cat fleas, read-out: efficacy (fleas dead or moribund)
In short: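 Compound in acetone coated onto inner walls of glass tubes, e.g. 900 ppm giving 5 μg/cm². After drying, 5–10 adult C. felis added per tube and held at room temperature. At 48 h, fleas unable to escape a 45–50 °C heating plate within 5 min scored dead/moribund, giving % efficacy.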

Ctenocephalides felis [2] = assay: Ctenocephalides felis oral test; conditions: 48 h, 100 ppm in cattle blood, after 2 days, adult unfed cat fleas
In short: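 About 20 unfed adult cat fleas feed through parafilm on cattle blood dosed with compound from a DMSO stock. Blood chamber at 37° C, fleas at room temperature. Percent mortality scored after 2 days.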

[3] = tested on: Musca domestica strain WHO-N; assay: Musca domestica test (MUSCDO surface treatment & contact assay); conditions: 24 hours after contact, read-out: efficacy (mortality)
Protocol: Musca domestica test (MUSCDO surface treatment & contact assay)
(§2) Solvent: Aceton+2000 ppm rapeseed oil methyl ester (RME)
(§3) In order to produce a sufficient, active ingredient containing solution it is necessary to solve the test compound in the solvent-mix (acetone at 2 mg/ml/RME 2000 ppm). This solution is pipetted onto a glazed tile and after evaporation of the acetone, adult flies of the species Musca domestica strain WHO-N are placed onto the dried surface. The exposure time is 30 minutes.
Mortality in percent (%) is determined 24 hours after contact of the insects to the treated surface. 100% morality means that all tested insects are dead, whereas 0% means that no insect died.

[4] = tested on: Culex quinquefasciatus strain P00; assay: Culex quinquefasciatus test (CULXFA surface treatment & contact assay); conditions: 24 hours after contact, read-out: efficacy (mortality)
In short: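 Compound dissolved in acetone (2 mg/ml) with 2000 ppm rapeseed oil methyl ester, applied to glazed tile and dried; adult C. quinquefasciatus strain P00 exposed to surface for 30 minutes. Mortality (%) scored 24 hours after contact.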

[5] = tested on: Blattella germanica strain PAULINIA; assay: whole plant or invertebrate; conditions: read-out: efficacy (mortality)
Protocol: Blattella Germanica Test (BLTTGE Surface Treatment & Contact Assay)
as §2
as §3, with “animals” for “flies”, “Blattella germanica” for “Musca domestica”, “PAULINIA” for “WHO-N”
Mortality in percent (%) is determined 24 hours after contact of the insects to the treated surface. 100% mortality means that all tested insects are dead, whereas 0% means that no insect died.

Nezara viridula = Nezara viridula spray test; conditions: 96 h, 500 g/ha, after 4 days, larvae on barley plants
In short: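 Barley plants infested with Nezara viridula larvae were sprayed with compound diluted in water containing 1000 ppm emulsifier. Percent mortality was scored 4 days later, where 100% means all bugs killed and 0% none.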

[6] = tested on: Aedes aegypti strain MONHEIM; assay: Aedes aegypti test (AEDSAE surface treatment & contact assay); conditions: 24 hours after contact, read-out: efficacy (mortality)
In short: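 Compound dissolved in acetone (2 mg/ml) with 2000 ppm rapeseed oil methyl ester, applied to glazed tile and dried; adult strain MONHEIM mosquitoes exposed 30 minutes. Percent mortality scored 24 hours after contact.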

[7] = surface concentration 4 mg/m^2, exposure 30 minutes
[8] = surface concentration 20 mg/m^2, exposure 30 minutes

SMILES	mortality at 500 g/ha (Tetranychus urticae) [%]	mortality at 500 g/ha (Phaedon cochleariae) [%]	pest or weed control at 0.02 mg (Boophilus microplus) [%]	mortality at 20 ppm (Myzus persicae) [%]	mortality at 500 g/ha (Spodoptera frugiperda) [%]	pest or weed control at 80 µg/disc, 250 g/ha (Diabrotica balteata) [%]	pest or weed control at 160 µg/disc, 500 g/ha (Diabrotica balteata) [%]	pest or weed control at 5 µg/cm2 (Ctenocephalides felis [1]) [%]	mortality at 100 ppm (Ctenocephalides felis [2]) [%]	mortality at 4 mg/m2 [3, 7] [%]	mortality at 20 mg/m2 [3, 8] [%]	mortality at 4 mg/m2 [4, 7] [%]	mortality at 20 mg/m2 [4, 8] [%]	mortality at 100 g/ha (Spodoptera frugiperda; 100 g/ha) [%]	mortality at 20 mg/m2 [5] [%]	mortality at 500 g/ha (Nezara viridula) [%]	mortality at 4 mg/m2 [6, 7] [%]	mortality at 20 mg/m2 [6, 8] [%]
CC(c1ncnn1-c1nccs1)N(CC1CC1)C(=O)c1cc(Cl)cc(C(F)(F)F)c1 (stereo not drawn) [Example I-003]	90	100	100	90	100	100	100	100	100									
C[C@H](NC(=O)c1cc(Cl)cc(C(F)(F)F)c1)c1ncnn1-c1ncc(OC(F)(F)F)cn1 [Example I-011]			100		100	100	100	100	100	90 to 100	90 to 100	90 to 100	90 to 100	100	80 to 100	100	90 to 100	90 to 100
